Bounds are passed on as bounds.

A word on the melting point: it is the temperature, or range, at which the solid turns liquid.

The compound `Cc1ccc(NC(=O)c2ccc(C(=O)Nc3ccccc3NC(=O)OC(C)(C)C)nc2)cc1Nc1nccc(-c2cccnc2)n1` yielded a melting point of 186 to 187 °C. Turning to `Oc1ccc2c(c1)C(C(Cl)(Cl)Cl)OC(C(Cl)(Cl)Cl)O2` (stereo not drawn), the melting point was 167 to 169 °C.

As to `Cc1cc(Sc2ccccc2)ccc1[N+](=O)[O-]`, the melting point is 69 to 75 °C. In turn, `N#CCCNC(=O)c1cccc(-c2cccc(OC3CCCCC3)n2)c1` came in with a melting point of 131 to 132 °C. To `COC(=O)c1ccc2oc(=S)[nH]c2c1` belongs 218 to 221 °C; to `O=C1c2c(Cl)cccc2-c2n[nH]c3cccc1c23`, 310 °C; to `COC(=O)c1ccc(OCCCCCCc2ccc3cc(OCc4ccccc4)c(OCc4ccccc4)cc3c2)cc1O`, 129 to 131 °C. For `CC1(N2Cc3ccccc3C2=O)CCC(=O)NC1=O` (stereo not drawn), the melting point is 231 to 232 °C. Turning to `CC(=O)C=Cc1ccc(C#N)cc1`, the melting point is 103 to 106 °C. For the compound `O=c1c2cccnc2n(-c2cccc([N+](=O)[O-])c2)c(=O)n1CC(F)(F)F`, the melting point is 228 to 229 °C. Turning to `CC(=O)OCC1OC(n2cc(Cc3ccc(C4CC4)cc3)c3c(F)cccc32)C(OC(C)=O)C(OC(C)=O)C1OC(C)=O` (stereo not drawn), the melting point lay in the range of 190 to 192 °C. In turn, `COc1ccc(S(=O)(=O)CC(CS(=O)(=O)c2ccc(OC)cc2)C(=O)O)cc1` came in with a melting point of 174 to 175 °C. `CC(C)(C)OC(=O)[C@@H]1N(S(=O)(=O)c2ccc(O)cc2)CCSC1(C)C` registered a melting point of 171 °C. Turning to `CN(C)c1cnc(-c2cccc(Cl)c2Cl)c(N)n1`, the melting point lay within 147 to 148 °C. In the case of `O=C(Nc1ccc2c(c1)nc1n2CCC1)c1cc2cc(C(F)(F)F)cnc2n1Cc1ccccc1` it was 268 to 270 °C.

Compound `O=C(O)[C@@H]1CC2(CN1C(=O)CP(=O)(O)CCCCc1ccccc1)SCCS2` yielded a melting point of 106 to 107 °C. On to `Cc1cc(N2CCCC2)c([N+](=O)[O-])c(Cl)n1`, for which the melting point was in the range of 151 to 156 °C. Take `[O-][N+]1=C(c2ccccc2F)c2cc(Cl)ccc2NC(C(=NO)N2CCOCC2)C1` (stereo not drawn): the melting point lay within 184 to 186 °C.

Consider `O=C1N(c2ccccc2)c2ccccc2C1(Cc1ccccc1)Cc1ccncc1` (stereo not drawn), for which the melting point fell in the range of 127 to 128 °C. For `COC(=O)c1ccc(-c2nc(-c3ccc(OC)cc3)co2)cc1`, the melting point fell in the range of 200 to 202 °C. In the case of `O=C(O)C(Cc1ccccc1)C(=O)N[C@H](CO)Cc1c[nH]c2ccccc12` (stereo partly drawn) it was 130 to 131 °C; in that of `O=[N+]([O-])c1ccc(C2OCCO2)cc1`, 88 to 92 °C; in that of `CCCCCCCCCCCCCCOc1cc(C(=O)Cl)ccc1OC`, 60 to 61 °C.

`CC1(C)C(=O)N(Cc2ccccc2Cl)OC1Nc1ccccc1` (stereo not drawn): the melting point is 99 to 101 °C. `N#Cc1cccc(Oc2ncccc2O)c1` came in with a melting point of 130 to 133 °C. Take `CC(C)(C)OC(=O)NS(=O)(=O)c1ccc(Br)cc1`: the melting point was in the range of 127 to 128 °C. In turn, `CN(Cc1cccs1)C(=O)C12CC3CC(CC(O)(C3)C1)C2` came in with a melting point of 88 to 91 °C. In the case of `CN(C(=O)Nc1c(F)cc(F)cc1CCc1cc(C(C)(C)C)c(O)c(C(C)(C)C)c1)C1CCN(Cc2ccccc2)CC1` it was 187 to 191 °C; in that of `Cc1oc2cc(NC(=O)C(=O)O)ccc2c(=O)c1C`, 234 to 240 °C; in that of `CCCc1c(OCCCSc2cccc(CC(=O)OC)c2F)ccc(C(C)=O)c1O`, 63 to 65 °C. To `CC1(Cc2ccccc2)Cc2cc(O)c(Cl)c(Cl)c2C1=O` (stereo not drawn) belongs 219 to 221 °C. In the case of `CC(=O)OCC1OC(n2c(=S)[nH]c3cc(Cl)c(Cl)cc32)C(OC(C)=O)C1OC(C)=O` (stereo not drawn) it was 241 °C; in that of `COc1cc(C(=O)c2cccnc2)cc([N+](=O)[O-])c1O`, 193 °C. `CC(C)(C)OC(=O)N1CCN(C(=O)C2C3CCC(O3)C2C(=O)O)CC1` (stereo not drawn) came in with a melting point of 206 to 208 °C.

In turn, `CC(=O)OCCCN1CCC(CNC(=O)[C@@H]2CCCN2S(=O)(=O)c2ccc(Cl)c(COc3cccc4c(-n5cccn5)cc(C)nc34)c2Cl)CC1` showed a melting point of 89 °C. `COC(=O)c1[nH]nc2c1C(C)Cc1cc(OC)ccc1-2` (stereo not drawn) displayed a melting point of 163 °C. As for `CC(=O)Oc1ccc(C(=O)N2CCN(CC(C)(C)S)CC2)cc1`, the melting point is 121 °C. In the case of `c1ccc2[nH]c(Cn3ccnc3)nc2c1` it was 198 to 200 °C; in that of `CCNC(=O)Nc1cnc2ccc(Nc3ccc(C)cc3)nc2n1`, 235 °C. In the case of `O=C1COCC(c2ccccc2)N1C(=O)Oc1ccc([N+](=O)[O-])cc1` (stereo not drawn) it was 105 to 109 °C; in that of `CCNC(=O)Nc1cccc(Oc2nnc([C@@H](C)NS(=O)(=O)c3ccc(Cl)c(Cl)c3)n2CC)c1`, 118 to 120 °C; in that of `CCCCCCCOc1ccc(CNc2ccc(C(=O)OCC)cc2)cc1`, 111 to 113 °C. Turning to `NNc1ccc(C2CCCCC2)cc1`, the melting point was 115 to 116 °C. Consider `CC(=O)SCCc1cn2cccnc2n1`, for which the melting point was in the range of 122 to 124 °C. In the case of `CC(C)(C)OC(=O)Nc1ccc2ccc(S(C)(=O)=O)cc2c1Br` it was 166 to 167 °C; in that of `CCOC(=O)NNC(=O)Nc1ccc(C(F)(F)F)cc1`, 205 to 208 °C. With `CCNCc1nc(-c2ncn3c2CN(C)C(=O)c2cc(F)ccc2-3)no1`, the melting point lay within 166 to 168 °C.

The compound `CCOCCOC(=O)C1=C(C)NC(C)=C([N+](=O)[O-])C1c1cccc([N+](=O)[O-])c1` (stereo not drawn) registered a melting point of 140 °C. To `CC(C)(C)OC(=O)Nc1cc(N2CCS(=O)(=O)CC2)c(C#Cc2ccccc2)cc1[N+](=O)[O-]` belongs 217 to 221 °C. In the case of `CN(c1cccnc1S(N)(=O)=O)S(=O)(=O)CF`, the melting point lay in the range of 160 to 162 °C.

In turn, `Cc1[nH]c(C)c(-c2ccc(Oc3ccc(Cl)cc3)cc2)c(=O)c1Cl` yielded a melting point of 340 to 343 °C. As for `CCCCCCCCCCCCCCNC(=S)NC(=O)c1ccc(C#N)cc1`, the melting point was 78 to 80 °C.

In the case of `O=C1NC(=O)c2nc3ccccc3cc21`, the melting point was greater than 300 °C. The compound `CC1=C(C)C(=O)C(C(CCCCCC(=O)NCC(=O)O)c2ccccc2)=C(C)C1=O` (stereo not drawn) showed a melting point of 162 to 164 °C. On to `Cc1cccc(C)c1CNc1c(NC(C)(C)C)c(=O)c1=O`, for which the melting point is 265 to 267 °C. In turn, `CCn1c(=O)c2[nH]c(/C=C/c3cc(OC)c4c(c3)OCO4)nc2n(CC)c1=O` gave a melting point greater than 270 °C. As to `Brc1ccc(-c2cc(-c3ccc(Br)cc3)on2)cc1`, the melting point was 218 to 220 °C. Consider `Cc1ccc(S(=O)(=O)N2CCN(C(=O)c3ccc(Nc4ccnc5cc(C(F)(F)F)ccc45)cc3)CC2)cc1`, for which the melting point was in the range of 215 to 217 °C.

With `C=Cc1cn(-c2c(Cl)cc(C(F)(F)F)cc2Cl)nc1C`, the melting point lay within 68.1 to 68.7 °C.

Compound `Cc1cccc(NC(=O)NC2CN(Cc3ccccc3)c3ccccc3N(CC(=O)c3ccccc3C)C2=O)c1` (stereo not drawn) yielded a melting point of 169 to 172 °C. For the compound `Cc1nc2c(C(F)(F)F)cccc2c(O)c1C(=O)O`, the melting point was 260 °C. To `O=C1CC(Cc2ccccc2Cl)CN1` (stereo not drawn) belongs 87 to 89 °C. With `CCOC(=O)C(=O)c1c(C(=O)OCC)n(C)c2cc(Cl)ccc12`, the melting point lay in the range of 94 to 95 °C. As to `COc1ccc(C(=O)c2cccc(C(=O)O)c2)c(O)c1`, the melting point was 229 to 236 °C. In the case of `CC(C)(C)c1cc(-c2cc(-c3ccc(C(=O)O)cc3)ccc2OCCO)ccc1N1CCCC1` it was 223 °C.

For the compound `OCC1COC2(CCN(CCc3ccccc3)CC2)O1` (stereo not drawn), the melting point was found to be 96 °C. With `COC(=O)Nc1ccc(OCc2nc3cc(F)ccc3s2)cc1C`, the melting point was 165 to 168 °C. In the case of `Cc1c(C)c2c(c(C)c1NC(=O)C(=O)C(C)(C)C)C(c1ccc(C(C)C)cc1)CO2` (stereo not drawn) it was 142 to 143 °C; in that of `C[C@H](NC(CCC(=O)O)C(=O)O)C(=O)N1CCC[C@H]1C(=O)O` (stereo partly drawn), 140 to 160 °C; in that of `CCN(CC)C(=O)CCc1ccc(N)c([N+](=O)[O-])c1`, 98 to 99 °C. Take `Cc1nc(-n2cnn(Cc3ccc(F)cc3)c2=O)sc1C(N)=O`: the melting point was 232 to 233 °C. On to `CCOC(=O)c1cn(C)c2cnc3cc(N4CCN(c5ccc(F)cc5)CC4)c(F)cc3c2c1=O`, for which the melting point was 300 °C. Take `N#Cc1ccc2oc(CCCCc3cc4cc(C#N)ccc4o3)cc2c1`: the melting point was in the range of 187 to 188 °C. The compound `COc1ccc(C(=O)Nc2ccccc2C(=O)NCCCC(=O)O)cc1` showed a melting point of 172 to 174 °C.

In turn, `CC(C)(C)c1ccc(C(=O)Nc2cc(Cl)c(N)cc2O)cc1` yielded a melting point of 164 to 165 °C.

Take `COc1c(Cl)ccc(-c2cc(N)c(Cl)c(C(=O)NOC3C=CCCC3)n2)c1F` (stereo not drawn): the melting point was in the range of 180 to 182 °C. Compound `Cn1cc(Br)c(=O)c(-c2ccccc2)c1` displayed a melting point of 195 to 197 °C.

With `CCCCc1nc(Cl)c(CC(=O)OCC)c(Cc2ccc(C(=O)OC)cc2)n1`, the melting point was 78 °C. Take `Cc1cccc(NC(=O)NC2CN(C(=O)C(C)(C)C)c3ccccc3N(CC(C)C)C2=O)c1` (stereo not drawn): the melting point came to 152 °C. To `O=C(Nc1cccc(-c2nnn[nH]2)c1)C(=O)N1CCC(Cc2ccccc2)CC1` belongs 159 to 161 °C; to `CCOC(=O)n1c2ccccc2c(=O)n1Cc1ccc([N+](=O)[O-])cc1`, 123 to 124 °C; to `C[C@H](O)Cn1c(=O)c(Oc2ccc(F)cc2F)cc2cnc(NC(C)(C)CO)nc21`, 182 to 184 °C. The compound `CC(=Cc1cccc(O)c1)[N+](=O)[O-]` returned a melting point of 96 to 98 °C. In turn, `CC(N)c1ccc(C(=O)O)cc1` (stereo not drawn) came in with a melting point greater than 300 °C. With `Clc1ccc2nc3c4ccccc4c4ccccc4c3nc2c1`, the melting point lay within 241 to 242 °C. To `CC(=O)c1c(N(C)C)c(-c2ccccc2)n(Cc2ccccc2Cl)c1C` belongs 103 to 105 °C; to `Cc1c(C)n(CC=C(Cl)Cl)c2c(OCc3ccccc3)nncc12`, 149 to 151 °C; to `COc1ccc(NN=C(Sc2ccc(OC)cc2)C(C)=O)cc1`, 126 to 128 °C.

For the origin of these results see a melting point compilation (Tetko et al.; mined from patent text by program, amines drawn as free bases though some values may be those of a salt).
